Assay results: patent publication US9012443B2 (Amgen Inc., priority 2011, dated 2015)
“And” between values parts separate entries of the source, which are not always exact repeats. Equal values may be shown once. Read-outs that look alike come from different tables or passages of the source.

Molecular target: Nav 1.7 (Homo sapiens (Human), UniProt Q15858)
Experiment: Nav 1.7 IWQ in vitro assay (IonWorks Quattro population patch-clamp)
Assay type: cell-based
Details: for IC50: 293 cells stably transfected with Nav 1.7
Procedure: Nav 1.7 or Nav 1.5 IWQ In Vitro Assay
293 Cells stably transfected with either Nav 1.7 or Nav 1.5 were recorded in population patch-clamp mode with the IonWorks® Quattro automated electrophysiology system in accordance with the manufacturer's specifications (Molecular Devices, LLC, Sunnyvale, Calif.). Sodium channel currents were measured in response to a train of depolarizations that induced successively greater inactivation.
Cells were then left unclamped for a period of 3 to 8 minutes while a single concentration of test compound was added. Cells were then reclamped and put through the same voltage protocol. Current at the end of the 26th pulse to −20 mV was subtracted from the peak current evoked by the 26th pulse to −20 mV to correct for leak current. Percent block was calculated for each concentration in duplicate, and IC50 curves were fitted to percent block as a function of concentration.

[1] = second part of table, read-out: Nav1.7 IWQ IC50 IP
[2] = first part of table, read-out: Nav 1.7 IWQ IC50

Chain of Nav 1.7 (Q15858 whole entry): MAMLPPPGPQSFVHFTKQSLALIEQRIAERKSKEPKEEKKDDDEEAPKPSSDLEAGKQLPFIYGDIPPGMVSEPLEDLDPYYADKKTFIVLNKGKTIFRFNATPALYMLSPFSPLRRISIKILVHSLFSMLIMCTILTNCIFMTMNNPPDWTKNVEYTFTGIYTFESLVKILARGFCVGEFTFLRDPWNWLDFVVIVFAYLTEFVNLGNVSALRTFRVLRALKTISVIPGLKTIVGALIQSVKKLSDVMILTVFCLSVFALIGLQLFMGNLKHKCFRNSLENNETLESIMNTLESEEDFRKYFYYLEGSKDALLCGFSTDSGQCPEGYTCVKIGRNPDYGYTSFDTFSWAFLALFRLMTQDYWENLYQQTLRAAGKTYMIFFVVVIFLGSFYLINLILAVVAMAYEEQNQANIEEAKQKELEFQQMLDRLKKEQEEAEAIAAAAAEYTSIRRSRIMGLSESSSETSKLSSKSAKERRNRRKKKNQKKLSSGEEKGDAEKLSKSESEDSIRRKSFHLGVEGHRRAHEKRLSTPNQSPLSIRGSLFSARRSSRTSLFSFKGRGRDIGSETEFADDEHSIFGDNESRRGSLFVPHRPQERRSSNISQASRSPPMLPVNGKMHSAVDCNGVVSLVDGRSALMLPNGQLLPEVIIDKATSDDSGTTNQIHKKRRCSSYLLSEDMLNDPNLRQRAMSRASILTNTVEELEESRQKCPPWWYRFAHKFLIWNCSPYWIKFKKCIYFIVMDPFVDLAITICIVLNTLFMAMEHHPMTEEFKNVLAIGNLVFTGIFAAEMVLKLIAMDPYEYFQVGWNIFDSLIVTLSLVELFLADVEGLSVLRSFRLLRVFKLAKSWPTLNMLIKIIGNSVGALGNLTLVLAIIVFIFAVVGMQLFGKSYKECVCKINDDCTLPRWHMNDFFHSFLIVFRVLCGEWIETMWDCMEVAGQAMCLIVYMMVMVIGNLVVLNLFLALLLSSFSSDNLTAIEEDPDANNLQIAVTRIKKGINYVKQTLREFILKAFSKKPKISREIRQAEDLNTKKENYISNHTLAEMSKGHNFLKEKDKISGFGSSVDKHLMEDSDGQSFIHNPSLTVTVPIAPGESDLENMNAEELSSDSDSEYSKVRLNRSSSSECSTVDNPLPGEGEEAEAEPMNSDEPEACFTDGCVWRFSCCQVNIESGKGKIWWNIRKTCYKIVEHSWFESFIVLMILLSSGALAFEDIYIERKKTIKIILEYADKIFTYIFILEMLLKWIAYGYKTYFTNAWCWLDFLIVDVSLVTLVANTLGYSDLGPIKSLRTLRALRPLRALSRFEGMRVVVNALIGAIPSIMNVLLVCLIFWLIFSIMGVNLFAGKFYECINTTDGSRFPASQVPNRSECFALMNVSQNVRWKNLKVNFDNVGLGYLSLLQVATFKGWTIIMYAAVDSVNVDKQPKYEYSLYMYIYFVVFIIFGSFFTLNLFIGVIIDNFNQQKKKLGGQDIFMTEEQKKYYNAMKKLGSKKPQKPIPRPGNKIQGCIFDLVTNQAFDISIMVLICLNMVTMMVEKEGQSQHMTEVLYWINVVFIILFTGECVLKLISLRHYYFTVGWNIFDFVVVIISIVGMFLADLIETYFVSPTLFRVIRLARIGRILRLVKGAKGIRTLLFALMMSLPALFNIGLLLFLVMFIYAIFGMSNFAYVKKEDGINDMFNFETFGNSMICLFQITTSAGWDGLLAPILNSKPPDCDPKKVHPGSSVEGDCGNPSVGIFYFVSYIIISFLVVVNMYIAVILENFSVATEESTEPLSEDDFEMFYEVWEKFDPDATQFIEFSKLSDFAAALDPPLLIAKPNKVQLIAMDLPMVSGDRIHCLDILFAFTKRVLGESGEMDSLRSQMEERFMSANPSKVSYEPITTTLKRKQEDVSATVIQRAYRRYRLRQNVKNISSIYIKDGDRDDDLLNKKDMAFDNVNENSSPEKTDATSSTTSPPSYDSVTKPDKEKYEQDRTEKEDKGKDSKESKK

## O=S(=O)(Nc1nccs1)c1ccc2c(N3CCCC3c3ccccc3)ncnc2c1 (centres unmarked) [Example 537, 4-(2-PHENYLPYRROLIDIN-1-YL)-N-(THIAZOL-2-YL)QUINAZOLINE-7-SULFONAMIDE]
  Nav1.7 Single Point Data IWQ (at […]) (%): 41.2%

## COc1c(F)cccc1-c1nccc2cc(S(=O)(=O)Nc3ccncn3)ccc12 [Example 157, 1-(3-FLUORO-2-METHOXYPHENYL)-N-(PYRIMIDIN-4-YL)ISOQUINOLINE-6-SULFONAMIDE]
[1]
  IC50: 6390 nM

## CN1CCN(Cc2cccc(-c3nccc4cc(S(=O)(=O)Nc5ccncn5)ccc34)c2)CC1 [Example 431, 1-(3-((4-METHYLPIPERAZIN-1-YL)METHYL)PHENYL)-N-(PYRIMIDIN-4-YL)ISOQUINOLINE-6-SULFONAMIDE]
  Nav1.7 Single Point Data IWQ (at […]) (%): 20.2%

## CC1(c2ccccc2)CN(c2cccc3cc(S(=O)(=O)Nc4ncns4)ccc23)CCO1 (centres unmarked) [Example 15]
[2]
  IC50: 1290 nM

## O=S(=O)(Nc1nccs1)c1ccc2c(-c3ccc(C(F)(F)F)cc3Cl)cccc2c1 [Example 79]
[2]
  IC50: 900 nM

## O=S(=O)(Nc1ncns1)c1ccc2c(N3CCCC3c3ccccc3)cccc2c1 (centres unmarked) [Example 83]
[2]
  IC50: 10 nM

## COc1cc(C(F)F)c(F)cc1-c1ncnc2cc(S(=O)(=O)NC3=NCCS3)ccc12 [Example 519, 4-(4-(DIFLUOROMETHYL)-5-FLUORO-2-METHOXYPHENYL)-N-(4,5-DIHYDROTHIAZOL-2-YL)QUINAZOLINE-7-SULFONAMIDE]
  Nav1.7 Single Point Data IWQ (at […]) (%): <20%

## O=S(=O)(Nc1ncns1)c1ccc2c(-c3ccc(C(F)(F)F)c(Cl)c3)nccc2c1 [Example 57, 1-(3-CHLORO-4-(TRIFLUOROMETHYL)PHENYL)-N-(1,2,4-THIADIAZOL-5-YL)ISOQUINOLINE-6-SULFONAMIDE]
[2]
  IC50: 220 nM

## N#CC1(COc2nccc3cc(S(=O)(=O)Nc4ccncn4)ccc23)CC1 [Example 135, 1-((1-CYANOCYCLOPROPYL)METHOXY)-N-(PYRIMIDIN-4-YL)ISOQUINOLINE-6-SULFONAMIDE]
[1]
  IC50: 3300 nM

## Cc1nn(-c2ccccc2)nc1COc1nccc2cc(S(=O)(=O)Nc3ccncn3)ccc12 [Example 138, 1-((5-METHYL-2-PHENYL-2H-1,2,3-TRIAZOL-4-YL)METHOXY)-N-(PYRIMIDIN-4-YL)ISOQUINOLINE-6-SULFONAMIDE]
[1]
  IC50: 3960 nM

## O=S(=O)(Nc1ccncn1)c1ccc2c(-c3ccc(C(F)(F)F)cc3-c3ccncc3)nccc2c1 [Example 65, 1-(2-(PYRIDIN-4-YL)-4-(TRIFLUOROMETHYL)PHENYL)-N-(PYRIMIDIN-4-YL)ISOQUINOLINE-6-SULFONAMIDE]
[2]
  IC50: 320 nM

## CC(C)(O)C1CN(c2cccc3cc(S(=O)(=O)Nc4ncns4)ccc23)CCO1 (centres unmarked) [Example 20]
[2]
  IC50: 3140 nM

## Cc1noc(C)c1-c1nccc2cc(S(=O)(=O)Nc3ccncn3)ccc12 [Example 311, 1-(3,5-DIMETHYLISOXAZOL-4-YL)-N-(PYRIMIDIN-4-YL)ISOQUINOLINE-6-SULFONAMIDE]
  Nav1.7 Single Point Data IWQ (at […]) (%): 29%

## O=S(=O)(Nc1ccncn1)c1ccc2c(-c3cccc4cccnc34)nccc2c1 [Example 310, N-(PYRIMIDIN-4-YL)-1-(QUINOLIN-8-YL)ISOQUINOLINE-6-SULFONAMIDE]
[1]
  IC50: > 10000 nM
  Nav1.7 Single Point Data IWQ (at […]) (%): 46%

## O=S(=O)(Nc1ccncn1)c1ccc2c(-c3ccc(C(F)(F)F)cc3C3=CCNCC3)cccc2c1 [Example 48]
[2]
  IC50: 30 nM

## O=S(=O)(Nc1ccncn1)c1ccc2c(OCCCc3cn[nH]c3C(F)(F)F)nccc2c1 [Example 302, N-(PYRIMIDIN-4-YL)-1-(3-(5-(TRIFLUOROMETHYL)-1H-PYRAZOL-4-YL)PROPOXY)ISOQUINOLINE-6-SULFONAMIDE]
[1]
  IC50: > 10000 nM
  Nav1.7 Single Point Data IWQ (at […]) (%): 20%

## COc1cc(Cl)ccc1-c1cccc2cc(S(=O)(=O)Nc3ncco3)ccc12 [Example 45]
[2]
  IC50: 225 nM

## CCC1CCCCN1c1ncnc2cc(S(=O)(=O)Nc3nccs3)ccc12 (centres unmarked) [Example 535, 4-(2-ETHYLPIPERIDIN-1-YL)-N-(THIAZOL-2-YL)QUINAZOLINE-7-SULFONAMIDE]
  Nav1.7 Single Point Data IWQ (at […]) (%): 26%

## O=S(=O)(Nc1ccncn1)c1ccc2c(N3CCCC(c4cccc(F)c4)C3)nccc2c1 (centres unmarked) [Example 402, 1-(3-(3-FLUOROPHENYL)PIPERIDIN-1-YL)-N-(PYRIMIDIN-4-YL)ISOQUINOLINE-6-SULFONAMIDE]
  Nav1.7 Single Point Data IWQ (at […]) (%): 36.4%

## O=S(=O)(Nc1ccncn1)c1ccc2c(OCc3ccc(-n4ccnc4)cc3)nccc2c1 [Example 301, 1-((4-(1H-IMIDAZOL-1-YL)BENZYL)OXY)-N-(PYRIMIDIN-4-YL)ISOQUINOLINE-6-SULFONAMIDE]
[1]
  IC50: > 10000 nM
  Nav1.7 Single Point Data IWQ (at […]) (%): 40%

## CC(C)(C#N)c1ccccc1-c1nccc2cc(S(=O)(=O)Nc3nccs3)ccc12 [Example 385, 1-(2-(2-CYANOPROPAN-2-YL)PHENYL)-N-(THIAZOL-2-YL)ISOQUINOLINE-6-SULFONAMIDE]
  Nav1.7 Single Point Data IWQ (at […]) (%): 25.3%

## O=S(=O)(Nc1ccncn1)c1ccc2c(OCCn3cccc3)nccc2c1 [Example 303, 1-(2-(1H-PYRROL-1-YL)ETHOXY)-N-(PYRIMIDIN-4-YL)ISOQUINOLINE-6-SULFONAMIDE]
[1]
  IC50: > 10000 nM
  Nav1.7 Single Point Data IWQ (at […]) (%): 40%

## O=S(=O)(Nc1ncns1)c1ccc2c(-c3ccc(Cl)cc3)nccc2c1 [Example 64, 1-(4-CHLOROPHENYL)-N-(1,2,4-THIADIAZOL-5-YL)ISOQUINOLINE-6-SULFONAMIDE]
[2]
  IC50: 770 nM

## O=S(=O)(Nc1ccncn1)c1ccc2c(-c3ccc(N4CCCCC4)c(F)c3F)nccc2c1 [Example 432, 1-(2,3-DIFLUORO-4-(PIPERIDIN-1-YL)PHENYL)-N-(PYRIMIDIN-4-YL)ISOQUINOLINE-6-SULFONAMIDE]
  Nav1.7 Single Point Data IWQ (at […]) (%): 34.6%

## Cn1ccc2cccc(-c3nccc4cc(S(=O)(=O)Nc5ccncn5)ccc34)c21 [Example 164, 1-(1-METHYL-1H-INDOL-7-YL)-N-(PYRIMIDIN-4-YL)ISOQUINOLINE-6-SULFONAMIDE]
[1]
  IC50: 6610 nM

## COc1cc(Cl)ccc1-c1cccc2cc(S(=O)(=O)Nc3ccn(CCN(C)C)n3)ccc12 [Example 43]
[2]
  IC50: 4890 nM

## O=S(=O)(Nc1nccs1)c1ccc2c(-c3ccc(C(F)(F)F)cc3C3=CCNCC3)nccc2c1 [Example 70, 1-(2-(1,2,3,6-TETRAHYDROPYRIDIN-4-YL)-4-(TRIFLUOROMETHYL)PHENYL)-N-(THIAZOL-2-YL)ISOQUINOLINE-6-SULFONAMIDE]
[2]
  IC50: 15 nM

## O=S(=O)(Nc1nccs1)c1ccc2c(-c3ccc(C(F)(F)F)cc3C3=CCNCC3)cccc2c1 [Example 77]
[2]
  IC50: 70 nM

## O=S(=O)(Nc1ccncn1)c1ccc2c(OCC(F)(F)C3CCOCC3)nccc2c1 [Example 299, 1-(2,2-DIFLUORO-2-(TETRAHYDRO-2H-PYRAN-4-YL)ETHOXY)-N-(PYRIMIDIN-4-YL)ISOQUINOLINE-6-SULFONAMIDE]
[1]
  IC50: > 10000 nM
  Nav1.7 Single Point Data IWQ (at […]) (%): 49%

## COc1ncc(F)cc1-c1nccc2cc(S(=O)(=O)Nc3ccncn3)ccc12 [Example 166, 1-(5-FLUORO-2-METHOXYPYRIDIN-3-YL)-N-(PYRIMIDIN-4-YL)ISOQUINOLINE-6-SULFONAMIDE]
[1]
  IC50: 1390 nM

## O=S(=O)(Nc1ncns1)c1ccc2c(N3CCCC3c3ccncc3)ncnc2c1 (centres unmarked) [Example 539, 4-(2-(PYRIDIN-4-YL)PYRROLIDIN-1-YL)-N-(1,2,4-THIADIAZOL-5-YL)QUINAZOLINE-7-SULFONAMIDE]
  Nav1.7 Single Point Data IWQ (at […]) (%): 20.3%

## O=S(=O)(Nc1ncco1)c1ccc2c(-c3ccc(C(F)(F)F)cc3Cl)cccc2c1 [Example 49]
[2]
  IC50: 4870 nM

## COc1cc(C(F)(F)F)ccc1-c1nccc2cc(S(=O)(=O)Nc3cnccn3)ccc12 [Example 186, 1-(2-METHOXY-4-(TRIFLUOROMETHYL)PHENYL)-N-(PYRAZIN-2-YL)ISOQUINOLINE-6-SULFONAMIDE]
[1]
  IC50: 2340 nM and 370 nM

## O=S(=O)(Nc1ccncn1)c1ccc2c(OCc3cccnc3)nccc2c1 [Example 128, 1-(PYRIDIN-3-YLMETHOXY)-N-(PYRIMIDIN-4-YL)ISOQUINOLINE-6-SULFONAMIDE]
[1]
  IC50: 3960 nM

## COc1cc(C(=O)CCCCO)ccc1-c1nccc2cc(S(=O)(=O)Nc3ccncn3)ccc12 [Example 463, 1-(4-(5-HYDROXYPENTANOYL)-2-METHOXYPHENYL)-N-(PYRIMIDIN-4-YL)ISOQUINOLINE-6-SULFONAMIDE]
  Nav1.7 Single Point Data IWQ (at […]) (%): 41.1%

## COc1cc(C(F)(F)F)ccc1-c1nccc2cc(S(=O)(=O)Nc3ccncn3)cnc12 [Example 292, 8-(2-METHOXY-4-(TRIFLUOROMETHYL)PHENYL)-N-(PYRIMIDIN-4-YL)-1,7-NAPHTHYRIDINE-3-SULFONAMIDE]
[1]
  IC50: 3940 nM

## O=S(=O)(Nc1ccncn1)c1ccc2c(OCc3cccnc3N3CCOCC3)nccc2c1 [Example 298, 1-((2-MORPHOLINOPYRIDIN-3-YL)METHOXY)-N-(PYRIMIDIN-4-YL)ISOQUINOLINE-6-SULFONAMIDE]
[1]
  IC50: > 10000 nM
  Nav1.7 Single Point Data IWQ (at […]) (%): 29%

## O=S(=O)(Nc1nccs1)c1ccc2c(N3CCCCC3c3ccccc3)ncnc2c1 (centres unmarked) [Example 538, 4-(2-PHENYLPIPERIDIN-1-YL)-N-(THIAZOL-2-YL)QUINAZOLINE-7-SULFONAMIDE]
  Nav1.7 Single Point Data IWQ (at […]) (%): 31.2%

## Cc1cnc(OCC2CCC2)c(-c2nccc3cc(S(=O)(=O)Nc4nccs4)ccc23)c1 [Example 381, 1-(2-(CYCLOBUTYLMETHOXY)-5-METHYLPYRIDIN-3-YL)-N-(THIAZOL-2-YL)ISOQUINOLINE-6-SULFONAMIDE]
  Nav1.7 Single Point Data IWQ (at […]) (%): 26.5%

## O=S(=O)(Nc1ccncn1)c1ccc2c(-c3ccc(C(F)(F)F)cc3-c3ccncc3)cccc2c1 [Example 75]
[2]
  IC50: 100 nM

## O=S(=O)(Nc1ccncn1)c1ccc2c(Oc3ccc(Cl)c(Cl)c3)nccc2c1 [Example 193, 1-(3,4-DICHLOROPHENOXY)-N-(PYRIMIDIN-4-YL)ISOQUINOLINE-6-SULFONAMIDE]
[1]
  IC50: 4980 nM
